Molecular target: T1, Human Recombinant Matriptase 2 (Homo sapiens, UniProt Q8IU80)
T1 construct: purchased Enzo Life Sciences (an in-house preparation was also used) ALX-201-752-1
T1 sequence (Q8IU80 1-811): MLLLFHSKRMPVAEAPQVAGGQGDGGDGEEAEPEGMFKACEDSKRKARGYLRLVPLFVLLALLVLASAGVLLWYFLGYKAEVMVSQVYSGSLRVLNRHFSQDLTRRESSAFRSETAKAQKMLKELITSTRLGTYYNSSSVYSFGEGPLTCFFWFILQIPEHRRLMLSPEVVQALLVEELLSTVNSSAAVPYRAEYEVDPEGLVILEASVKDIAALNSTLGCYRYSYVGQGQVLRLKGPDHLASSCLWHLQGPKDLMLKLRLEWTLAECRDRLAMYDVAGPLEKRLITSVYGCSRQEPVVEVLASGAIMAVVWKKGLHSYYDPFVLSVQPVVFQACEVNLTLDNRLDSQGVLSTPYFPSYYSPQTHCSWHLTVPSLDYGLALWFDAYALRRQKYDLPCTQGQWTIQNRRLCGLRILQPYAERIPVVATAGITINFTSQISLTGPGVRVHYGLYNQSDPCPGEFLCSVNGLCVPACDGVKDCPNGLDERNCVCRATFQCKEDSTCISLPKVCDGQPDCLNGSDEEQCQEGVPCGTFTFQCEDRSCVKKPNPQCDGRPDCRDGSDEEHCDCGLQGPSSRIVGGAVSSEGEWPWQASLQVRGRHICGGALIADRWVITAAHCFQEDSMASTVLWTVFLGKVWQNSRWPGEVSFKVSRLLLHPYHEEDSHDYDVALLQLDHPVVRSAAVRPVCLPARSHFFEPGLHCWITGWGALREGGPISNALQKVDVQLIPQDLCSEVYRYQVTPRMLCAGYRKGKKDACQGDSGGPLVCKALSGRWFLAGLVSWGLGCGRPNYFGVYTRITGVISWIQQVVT
Test: Matriptase 2 fluorescence based inhibition assay, Method A (100 mM TRIS pH 9, 1 mg/mL BSA)
Assay type: biochemical
Details: at 1 uM; Assay Used = A; read-out: Mar-2 % inhibition at 1 uM
In short: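 At 25° C in 100 mM TRIS pH 9 with 1 mg/mL BSA and 1% DMSO, compounds were preincubated 30 min with 7 nM commercial or 15 nM in-house protein before adding 100 μM Boc-Gln-Ala-Arg-7-amido-4-methyl coumarin. Fluorescence at 360/480 nm after 60 min; single points at 1 and 10 μM, IC50 by variable-slope nonlinear regression.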

SMILES	inhibition at 1 µM [%]
CC1CCC(NC(=O)c2c(Cl)c3ccc(C(=N)N)cc3n2Cc2ccc(C(N)=O)cc2)CC1 (stereo not drawn) [Compound I-214]	0 to 25
CNC(=O)c1ccc(Cn2c(C(=O)NCC3CCCCC3)cc3ccc(C(=N)N)cc32)cc1 [Compound I-215, 6-Carbamimidoyl-N-(cyclohexylmethyl)-1-(4-(methylcarbamoyl)benzyl)-1H-indole-2-carboxamide]	0 to 25
CN(C)C(=O)c1ccc(Cn2c(C(=O)NCC3CCCCC3)cc3ccc(C(=N)N)cc32)cc1 [Compound I-216, 6-Carbamimidoyl-N-(cyclohexylmethyl)-1-(4-(dimethylcarbamoyl)benzyl)-1H-indole-2-carboxamide]	0 to 25
N=C(N)c1ccc2cc(C(=O)NCC3CCCCC3)n(Cc3ccc(C(=O)NC4CC4)cc3)c2c1 [Compound I-217, 6-Carbamimidoyl-N-(cyclohexylmethyl)-1-(4-(cyclopropylcarbamoyl)benzyl)-1H-indole-2-carboxamide]	0 to 25
CC1CCC(NC(=O)c2cc3ccc(C(=N)N)cc3n2Cc2ccc(C(=O)N(C)C)cc2)CC1 (stereo not drawn) [Compound I-218, 6-Carbamimidoyl-1-(4-(dimethylcarbamoyl)benzyl)-N-(4-methylcyclohexyl)-1H-indole-2-carboxamide]	0 to 25
CC1CCC(NC(=O)c2cc3ccc(C(=N)N)cc3n2Cc2ccc(C(=O)NC3CC3)cc2)CC1 (stereo not drawn) [Compound I-219, 6-Carbamimidoyl-1-(4-(cyclopropylcarbamoyl)benzyl)-N-(4-methylcyclohexyl)-1H-indole-2-carboxamide]	0 to 25
CNC(=O)c1ccc(Cn2c(C(=O)NC3CCC(C)CC3)cc3ccc(C(=N)N)cc32)cc1 (stereo not drawn) [Compound I-220, 6-Carbamimidoyl-1-(4-(methylcarbamoyl)benzyl)-N-(4-methylcyclohexyl)-1H-indole-2-carboxamide]	0 to 25
CCNC(=O)c1ccc(Cn2c(C(=O)NC3CCC(C)CC3)cc3ccc(C(=N)N)cc32)cc1 (stereo not drawn) [Compound I-221, 6-Carbamimidoyl-1-(4-(ethylcarbamoyl)benzyl)-N-(4-methylcyclohexyl)-1H-indole-2-carboxamide]	0 to 25
N=C(N)c1ccc2cc(C(=O)NCC3CCCCC3)n(Cc3ccc(C(=O)NCCO)cc3)c2c1 [Compound I-222, 6-Carbamimidoyl-N-(cyclohexylmethyl)-1-(4-((2-hydroxyethyl)carbamoyl)benzyl)-1H-indole-2-carboxamide]	0 to 25
CC1CCC(NC(=O)c2cc3ccc(C(=N)N)cc3n2Cc2ccc(C(=O)NCCO)cc2)CC1 (stereo not drawn) [Compound I-223, 6-Carbamimidoyl-1-(4-((2-hydroxyethyl)carbamoyl)benzyl)-N-(4-methylcyclohexyl)-1H-indole-2-carboxamide]	0 to 25
CC1CCC(NC(=O)c2cc3ccc(C(=N)N)cc3n2Cc2ccc(C(=O)NCCN)cc2)CC1 (stereo not drawn) [Compound I-224, 1-(4-((2-Aminoethyl)carbamoyl)benzyl)-6-carbamimidoyl-N-(4-methylcyclohexyl)-1H-indole-2-carboxamide]	0 to 25
N=C(N)c1ccc2cc(C(=O)NCC3CCCCC3)n(Cc3ccc(C(=O)NCCN)cc3)c2c1 [Compound I-225, 1-(4-((2-Aminoethyl)carbamoyl)benzyl)-6-carbamimidoyl-N-(cyclohexylmethyl)-1H-indole-2-carboxamide]	0 to 25
N=C(N)c1ccc2cc(C(=O)NCC3CCCCC3)n(Cc3ccc(C(N)=O)cc3F)c2c1 [Compound I-227, 6-Carbamimidoyl-1-(2-Fluoro-4-carbamoyl-benzyl)-N-(cyclohexylmethyl)-1H-indole-2-carboxamide]	0 to 25
N=C(N)c1ccc2cc(C(=O)NCC3CCCCC3)n(Cc3ccc(C(N)=O)cc3Cl)c2c1 [Compound I-228, 6-Carbamimidoyl-1-(2-Chloro-4-carbamoyl-benzyl)-N-(cyclohexylmethyl)-1H-indole-2-carboxamide]	0 to 25
N=C(N)c1ccc2cc(C(=O)NCC3CCCCC3)n(Cc3ccc(C(N)=O)c(Cl)c3)c2c1 [Compound I-229, 6-Carbamimidoyl-1-(3-Chloro-4-carbamoyl-benzyl)-N-(cyclohexylmethyl)-1H-indole-2-carboxamide]	0 to 25
N=C(N)c1ccc2cc(C(=O)NC3CCC(F)(F)CC3)n(Cc3cccc(C(N)=O)c3)c2c1 [Compound I-230, 6-Carbamimidoyl-1-(3-carbamoylbenzyl)-N-(4-difluorocyclohexyl)-1H-indole-2-carboxamide]	0 to 25
N=C(N)c1ccc2cc(C(=O)NCC3CCCCC3)n(Cc3ccc(B(O)O)cc3)c2c1 [Compound I-231]	0 to 25
CN(CC1CCCCC1)C(=O)c1cc2ccc(C(=N)N)cc2n1Cc1ccc(C(N)=O)cc1 [Compound I-232, 6-Carbamimidoyl-1-(4-carbamoylbenzyl)-N-(cyclohexylmethyl)-N-methyl-1H-indole-2-carboxamide]	0 to 25
N=C(N)c1ccc2cc(C(=O)N[C@H]3CC[C@H](N)CC3)n(Cc3ccc(-c4ccccc4)cc3)c2c1 [Compound I-234]	25 to 50
N=C(N)c1ccc2cc(C(=O)NC3CCC(F)(F)CC3)n(Cc3ccc(-c4ccccc4)cc3)c2c1 [Compound I-235]	0 to 25
N=C(N)c1ccc2c(Cl)c(C(=O)NCC3CCCCC3)n(Cc3ccc(-c4ccccc4)cc3)c2c1 [Compound I-236]	0 to 25
CC1CCC(NC(=O)c2c(Cl)c3ccc(C(=N)N)cc3n2Cc2ccc(-c3ccccc3)cc2)CC1 (stereo not drawn) [Compound I-237]	0 to 25
CCc1ccc(-c2cccc(Cn3c(C(=O)NC4CCC(N)CC4)cc4ccc(C(=N)N)cc43)c2)cc1 (stereo not drawn) [Compound I-238]	25 to 50
CCOc1ccc(-c2cccc(Cn3c(C(=O)N[C@H]4CC[C@H](N)CC4)cc4ccc(C(=N)N)cc43)c2)cc1 [Compound I-239]	25 to 50

The remaining lines, values ahead:

inhibition at 1 µM [%]	SMILES
50 to 75	N=C(N)c1ccc2cc(C(=O)N[C@H]3CC[C@H](N)CC3)n(Cc3cccc(Oc4ccccc4)c3)c2c1 [Compound I-240]
25 to 50	N=C(N)c1ccc2cc(C(=O)N[C@H]3CC[C@H](NC(=O)CCN)CC3)n(Cc3ccc(Oc4ccccc4)cc3)c2c1 [Compound I-242, N-((1r,4r)-4-(3-Aminopropanamido)cyclohexyl)-6-carbamimidoyl-1-(4-phenoxybenzyl)-1H-indole-2-carboxamide]
50 to 75	N=C(N)c1ccc2cc(C(=O)NC3CCC(N)CC3)n(Cc3ccc(Oc4ccc(F)cc4)cc3)c2c1 (stereo not drawn) [Compound I-243]
25 to 50	N=C(N)c1ccc2cc(C(=O)NC34CC5CC(CC(O)(C5)C3)C4)n(Cc3ccc(Oc4ccc(F)cc4)cc3)c2c1 [Compound I-244]
25 to 50	N=C(N)c1ccc2cc(C(=O)NC34CC5CC(CC(C5)C3)C4)n(Cc3ccc(Oc4ccc(F)cc4)cc3)c2c1 [Compound I-245]
50 to 75	N=C(N)c1ccc2cc(C(=O)N[C@H]3CC[C@H](N)CC3)n(Cc3ccc(Oc4ccc(F)cc4)nc3)c2c1 [Compound I-246]
50 to 75	N=C(N)c1ccc2cc(C(=O)N[C@H]3CC[C@H](N)CC3)n(Cc3ccc(Oc4ccc(Cl)cc4)cc3)c2c1 [Compound I-247]
25 to 50	N=C(N)c1ccc2c(Br)c(C(=O)N[C@H]3CC[C@H](N)CC3)n(Cc3ccc(Oc4ccccc4)cc3)c2c1 [Compound I-250]
25 to 50	N=C(N)c1ccc2c(Cl)c(C(=O)N[C@H]3CC[C@H](N)CC3)n(Cc3ccc(Oc4ccccc4)cc3)c2c1 [Compound I-251]
0 to 25	N=C(N)c1ccc2c(N)c(C(=O)N[C@H]3CC[C@H](NC(=O)O)CC3)n(Cc3ccc(Oc4ccccc4)cc3)c2c1 [Compound I-253, ((1r,4r)-4-(3-Amino-6-carbamimidoyl-1-(4-phenoxybenzyl)-1H-indole-2-carboxamido)-cyclohexyl) carbamic Acid]
25 to 50	CCOC(=O)Nc1c(C(=O)N[C@H]2CC[C@H](N)CC2)n(Cc2ccc(Oc3ccccc3)cc2)c2cc(C(=N)NO)ccc12 [Compound I-254, Ethyl (2-(((1r,4r)-4-aminocyclohexyl)carbamoyl)-6-((Z)—N′-hydroxycarbamimidoyl)-1-(4-phenoxybenzyl)-1H-indol-3-yl)carbamate]
25 to 50	N=C(N)c1ccc2cc(C(=O)N[C@H]3CC[C@H](N)CC3)n(Cc3cccc(N)c3)c2c1 [Compound I-256, 1-(3-Aminobenzyl)-N-((1r,4r)-4-aminocyclohexyl)-6-carbamimidoyl-1H-indole-2-carboxamide]
